Assay results taken from patent US5744450A, “GnRH analogs” (The Salk Institute for Biological Studies, priority 1995, dated 1998).

System: LH release

CCNC(=O)[C@@H]1CCCN1C(=O)[C@H](CCCNC(=N)N)NC(=O)[C@H](CC(C)C)NC(=O)[C@@H](Cc1ccc(Nc2n[nH]c(N)n2)cc1)NC(=O)[C@H](Cc1ccc(O)cc1)NC(=O)[C@H](CO)NC(=O)[C@H](Cc1c[nH]c2ccccc12)NC(=O)[C@H](Cc1c[nH]cn1)NC(=O)[C@@H]1CCC(=O)N1 [Peptide 130A, pGlu-His-Trp-Ser-Tyr-D-Aph(3-amino-1,2,4-triazole)-Leu-Arg-Pro-NHCH2 CH3]
potency relative to native GnRH: about 79 times that of native GnRH
